The nature of data set [1]: Water solubility of isolated BRAP. The class given is physicochemical. Particulars: white powder as obtained. The source says:
H2O2-activable anti-oxidant prodrug BRAP was synthesized by reacting (4-(hydroxymethyl)phenyl)boronic acid and 2-(hydroxymethyl)-2-methylpropane-1,3-diol at room temperature (FIG. 1A). BRAP was obtained as white water-soluble powder and its chemical structure was confirmed by ^1H NMR (FIG. 1B).

In data set [2] the test system is hepatic I/R injury. In words: Mouse model of hepatic I/R injury. The class given is in vivo. Particulars: ip at reperfusion. The procedure: FIG. 5, comprising FIGS. 5A-5D, is a set of images and bar graphs illustrating beneficial effects of BRAP in hepatic I/R (1 hour ischemia/12 hour reperfusion) injury. FIG. 5A: Hematoxylin and eosin (H/E) staining, DHE staining, and TUNEL staining of mouse liver after injection with HBA or BRAP. FIGS. 5B-5D: Quantitative analysis of serum ALT levels (FIG. 5B), cleaved caspase-3 protein expression (FIG. 5C), and TNF-α protein expression (FIG. 5D) after I/R injury. *p<0.01 relative to Veh I/R. †p<0.05 relative to HBA I/R (n=3˜4/group). Actin protein expression was used as an internal control for protein loading.
Experiments to evaluate whether BRAP reduces ROS generation and inhibits apoptosis were performed in a mouse model of […] I/R injuries. I/R was induced first by 1 hour of ligation of hepatic artery and portal vein followed by reperfusion of hepatic artery. BRAP or HBA was then administrated intraperitoneally (ip) at the time of reperfusion.
Hepatic I/R surgery was performed in 12 week-old male mice. Briefly, mice were anaesthetized, and midline incision was performed for laparotomy. After identifying the portal triad and biliary tree, the main trunk of hepatic artery and portal vein were clamped with vascular clip except for the vasculatures to the right lower lobe to achieve ischemic injury to approximately 70% of the liver. After 1 hour of ischemia, reperfusion was achieved by releasing the vascular clip. No vascular clamp was done for the sham group of mice.
For liver apoptosis assay, terminal deoxynucleotidyl transferase dUTP nick end labeling (TUNEL) staining was performed using a DeadEnd™ Fluorometric TUNEL kit (Promega, Madison, Wis.). Tissue sections were stained for nuclei (4′,6-diamidino-2-phenylindole (DAPI) staining) and apoptotic nuclei (TUNEL staining) and analyzed using a confocal laser scanning microscope. For heart tissues, TUNEL staining was performed using in situ cell death detection Kit, fluorescein (Roche Applied Science, Indianapolis, Ind.). To distinguish cardiomyocyte from non-cardiomyocyte nuclei, triple stain for nuclei (DAPI staining), apoptotic nuclei (TUNEL staining), and cardiomyocytes (α-Actinin staining) was used, and the stained sections were analyzed using confocal microscopy. A minimum of ˜10 high power fields with ˜2000 nuclei/field were counted for each sample.
Heart tissues were collected for molecular analyses were performed in Bae, et al., 2010, Am J Physiol Heart Circ Physiol 299:H1374. For RT-PCR ribosomal 18S primers acted as internal controls and all RT-PCR signals were normalized to the 18S signal of the corresponding RT products. For Western blot analysis, the protein content was measured using BCA assay. Actin protein expression was used as an internal control for protein loading.
The optimal cutting temperature (OCT)-embedded tissues were fixed in 4% paraformaldehyde. Tissue sections were incubated with 5 μM dihydroethidium (DHE, Sigma-Aldrich) at 37° C. for 30 min in a humidified chamber protected from light. Then, 4′,6-diamidino-2-phenylindole (DAPI) was applied. Images were acquired by confocal fluorescence microscope.

In data set [3] the test system is TNF-α. Put plainly: TNF-α level in LPS-stimulated macrophage cells. The class given is cell-based, mouse. The protocol: FIG. 4, comprising FIGS. 4A-4F, is a set of graphs, bar graphs and images illustrating anti-oxidant and anti-inflammatory effects of BRAP in vitro. […] The generation of ROS was monitored by flow cytometry as an indicator of DCF fluorescence. Fluorescence was analyzed in 10,000 cells with excitation at 480 nm and emission at 530 nm. FIG. 4C: Protective effect of BRAP on H2O2— stimulated adult rat cardiomyocytes. V=vehicle, *<0.05 vs. V+H2O2 (n=4). […] (n=4/group).
The anti-inflammatory effects of BRAP on LPS-stimulated cells were investigated by measuring the level of inflammatory cytokines such as TNF-α (tumor necrosis factor-alpha) and iNOS (inducible nitric oxide synthases) (FIGS. 4E-4F). […] These observations indicate that BRAP, as well as BRAP-encapsulated PLGA microparticles, is able to scavenge overproduced H2O2 and serve as a H2O2-activable anti-oxidant. Further, the enhanced anti-oxidant activity of BRAP is derived from the combined effects of H2O2-scavenging boronic esters and HBA generation after H2O2-mediated boronate oxidation.

Consider `CC1(CO)COB(c2ccc(CO)cc2)OC1` [BRAP, (4-(5-(hydroxymethyl)-5-methyl-1,3,2-dioxaborinan-2-yl)phenyl)methanol], for which, in data set [1], the water solubility entry is recorded as “water-soluble”. In data set [2], the “ROS generation (DHE staining) in liver” value is reported as “higher inhibitory effects on ROS generation than HBA” and the “protection from I/R-induced liver damage (serum ALT)” value is listed as “concentration-dependent protection”. Moreover, the “hepatic damages (histology, H/E)” value in data set [2] (1 hour ischemia/12 hour reperfusion, same dose of HBA and BRAP) is given as “significant attenuation”. For the same compound, in data set [2] (same dose of HBA and BRAP), the TNF-α protein expression result is listed as “significant inhibition”, the “cleaved caspase-3 protein expression” value is on record as “significant inhibition” and the “hepatic apoptosis (TUNEL)” value is on record as “significantly greater anti-apoptotic effects than HBA”. Moreover, the TNF-α level entry in data set [3] is “significantly suppressing”.

For the origin of these results see US10370391B2, “Hydrogen peroxide-activable, anti-oxidant compounds and methods using same” (Beth Israel Deaconess Medical Center, Inc., priority 2014, dated 2019).
